From patent US20210038559A1, “CANNABINOIDS AND DERIVATIVES FOR PROMOTING IMMUNOGENICITY OF TUMOR AND INFECTED CELLS” (priority 2018, published 2021)

Key:
[1] = test system: MHC class I, A9 cells; format: cell-based, mouse; details: 48 hours
Experimental: FIG. 6. Cannabigerol treatment of A9 cells for 48 hours at various doses increases MHC class I protein expression, as determined by flow cytometry. […] IFN γ treatment was at 5.832×10^−6 in two mL of media.
The effect of cannabigerol on MHC class I in A9 cancer cells were determined as follows. A9 cells (1×10^6) were plated onto a 6 well plate (Corning) in two mL of media. A9 cells were treated after 24 hours at various concentrations of Cannabigerol, 5.832×10^4 nM IFN gamma or DMSO vehicle for 48 hours. Cells were then harvested from the plate as per protocol and half of the cells were checked for MHC class I expression levels using flow cytometry. The Anti-mouse H2 KB APC antibody (Biolegend) was used at 1:200 in FACS buffer (2% FBS in PBS).

[2] = test system: A9 cells, soluble mouse proteins; assay: Cytokine secretion profile in Cannabigerol treated A9 cells (Proteome Profiler Mouse XL cytokine array); format: cell-based; details: 0.055 μM, 48 hours, versus DMSO
Experimental: FIG. 10A-10E show the cytokines and other markers that have increased or decreased expression after treatment with cannabinoids, as compared to interferon gamma. FIG. 10A) Inflammatory markers; FIG. 10B) Cell growth markers; FIG. 10C) Leukocyte migration markers; FIG. 10D) Cell growth and differentiation markers; FIG. 10E) summary of markers.
Cannabigerol and IFN gamma were dissolved in 1% Dimethyl Sulfoxide (DMSO) (Sigma) in media (1% DMSO). 1×10^6 A9 cells were plated onto a 6 well plate in two mL of DMEM media. Twenty-four hours after seeding, cells were cultured at the optimum concentrations of Cannabigerol 0.055 μM or 5.832×10^−6 nM IFN gamma or 1% DMSO vehicle for 48 hours. Relative expression levels of 111 soluble mouse proteins including cytokines, chemokines and growth factors were evaluated using the Proteome Profiler Mouse XL cytokine array kit (R&D System, ARY028) following the manufacturer's instructions. Spot densities on the array film were detected and quantified using Image J analysis software Image J protein analyzer add-on on a scanned version of the film. Quantification of the spot intensity in the arrays was conducted with background subtraction in ImageJ. To determine fold change, the treatment values of IFN gamma microarrays were divided by the DMSO negative control values of the concurring spots. A value of 1 was subtracted from the absolute value of this fold change, to correct the value of DMSO to “0”. Experiment was done in technical replicates.
There also was an increase in VEGFA. Additionally, there was downregulation of IL-10, and IL-11. There also was a decrease in the production of IGFBP1 and angiopoietin-1,

[3] = test system: CD8+ T cells from OT1 mice co-cultured with A9 cells; assay: OT1 CD8+ T cell proliferation (CFSE) in co-culture with […]-loaded A9 cells; format: cell-based, mouse
Experimental: FIG. 8. A proliferation experiment using CD8^+ T cells from […]-primed OT1 mice in response to […] peptide presented on MHC class I of A9 cells. A9 cells were treated with 0.055 μM of Cannabigerol, 5.832×10^−6 nM of IFN gamma positive control. The negative control is named “CFSE and […] CD8^+ T cells”. T cells were labeled with CFSE proliferation dye, which is reduced within the progeny cells as the generations progress.
FIG. 9 MHC Class I expression of A9 cells associated with CD8^+ T cells from […]-primed OT. A9 cells were treated with 0.055 μM of Cannabigerol, or 5.832×10^4 nM of IFN gamma.
A cytolytic assay was performed as follows. A9 cells (1×10^6) were plated onto a 6 well plate in two mL of RPMI media (Advanced RPMI-1640 Medium (Gibco), 100 U/mL of Penicillin-Streptomycin (P+S) (Thermofisher), 1% L-Glutamine (Gibco), and 10% FBS). A9 cells were treated with either Cannabigerol 0.055 μM, 5.832×10^4 nM IFN gamma, or 1% DMSO vehicle. After 24 hours, […] OVA Peptide ([…]) (Genscript), was added to the A9 cells. Following an additional 24 hours, CD8^+ T cells were collected from OT1 mouse spleens. […] An extra well of untreated A9 cells was counted and used as a standard count. CD8^+ T cells were counted and then treated with CFSE (Biolegend) per manufacture protocol, before being co-cultured with A9 cells to a 1:1 ratio or a 1:5 ratio. […]

CCCCCc1cc(O)c(C/C=C(\C)CCC=C(C)C)c(O)c1 [Example 1, 2-[(2E)-3,7-dimethyl-2,6-octadien-1-yl]-5-pentyl-1,3-benzenediol]
upregulation of class I MHC ([1]; 0.0275 μM): less upregulation
class I MHC expression ([1]; 0.055 μM, relative to vehicle (DMSO), p value <0.0001, one-way ANOVA): significant increase
FGF-21 expression [2]: upregulated
IL-10 expression [2]: downregulation
IL-11 expression [2]: downregulation
IL-13 expression [2]: upregulated
VEGFA expression [2]: increase
production of IGFBP1 [2]: decrease
production of angiopoietin-1 [2]: decrease
MHC class I on the A9 cells associated with the OT1 T cells ([3]; A9 cells treated with 0.055 μM): increase
proliferation of OT1 CD8+ T cells ([3]; A9 cells treated with 0.055 μM for 48 hours prior to co-culture): increased proliferation
